Source: paper PMC10099666, “Structure Elucidation, Total Synthesis, Antibacterial In Vivo Efficacy and Biosynthesis Proposal of Myxobacterial Corramycin” (Angewandte Chemie (International Ed. in English), 2022)
In brackets after ≈: the same amount, converted by molar mass.

Key:
[1] = tested on: E. coli isolate 2 (CTX-M-2); assay: Cross-resistance MIC assay, clinical isolate; type: cell-based; parameters: unit not given beside the values; conditions: E. coli isolate 2, CTX-M-2, resistance ESBL; protocol as section 5 (CAMHB; there µg mL-1); unit not given in Table S5
Experimental: (§1) 5. Determination of the minimal inhibitory concentration (MIC) in vitro The MIC of Corramycin was evaluated following the Clinical & Laboratory Standard Institute (CLSI; https://clsi.org) and EUCAST (https://eucast.org) guidelines. First, inoculi of the bacterial test strains were prepared by culturing isolated colonies in cation-adjusted Müller Hinton broth (CAMHB; 2 g L-1 beef infusion solids, 1.5 g L-1 starch, 17.5 g L-1 casein hydrolysates, final pH 7.4) at 37 °C and 180 rpm for 18 h. Next, Corramycin, which was dissolved in DMSO, was transferred into the first row of a 96-well plate to reach an end concentration of 64 µg mL-1 (in 100 µL total volume). A 1:1 serial dilution in cation-adjusted Mueller Hinton broth (CAMHB) of the test compound was done from the top row to the bottom […]
(§2) the respective test strains were transferred into the wells, reaching a total volume of 100 µL and 5x10^5 colony-forming units (CFU) mL-1. After a 20 to 22 h of incubation, the optical density was evaluated on a microplate reader and the MIC endpoint was determined as the lowest concentration of antibiotic at which there was no visible growth observed. Each MIC experiment was performed in duplicates. Table […]
(§3) (1 picture or pasted object on this page, not shown here)
(§4) 6. Investigation of the cross-resistance of Corramycin to clinically used antibiotics […]
(§5) of the MIC according to the protocol described in the previous section. The MIC of the respective antibiotics against 16 clinical isolate E. coli strains, which were obtained from P. Nordmann’s collection and were classified Carbapenem-resistant, Aminoglycoside-resistant or Quinolone-resistant, was […]
(§6) extended-spectrum β-lactamase; CP: carbapenem; AG: aminoglycoside; QL: quinolone; PRP

[2] = tested on: E. coli isolate 3 (OXA-30); assay: Cross-resistance MIC assay, clinical isolate; type: cell-based; parameters: unit not given beside the values; conditions: E. coli isolate 3, OXA-30, resistance ESBL-CP; protocol as section 5 (CAMHB; there µg mL-1); unit not given in Table S5
Experimental: as §1, §2, §3, §4, §5, §6

[3] = tested on: E. coli isolate 5 (TEM-3); type: cell-based; parameters: unit not given beside the values; conditions: E. coli isolate 5, TEM-3, resistance ESBL; protocol as section 5 (CAMHB; there µg mL-1); unit not given in Table S5
Experimental: as §1, §2, §3, §4, §5, §6

[4] = tested on: E. coli isolate 10 (OXA-48+CTX-M-15); assay: Cross-resistance MIC assay, clinical isolate; type: cell-based; conditions: E. coli isolate 10, OXA-48+CTX-M-15, resistance ESBL-CP; protocol as section 5 (CAMHB; there µg mL-1); unit not given in Table S5
Experimental: as §1, §2, §3, §4, §5, §6

[5] = tested on: E. coli isolate 11 (RMT-B); assay: Cross-resistance MIC assay, clinical isolate; type: cell-based; conditions: resistance AG, protocol as section 5 (CAMHB; there µg mL-1), unit not given in Table S5
Experimental: as §1, §2, §3, §4, §5, §6

[6] = tested on: E. coli isolate 6 (IMP-1); assay: Cross-resistance MIC assay, clinical isolate; type: cell-based; conditions: E. coli isolate 6, IMP-1, resistance ESBL-CP; protocol as section 5 (CAMHB; there µg mL-1); unit not given in Table S5
Experimental: as §1, §2, §3, §4, §5, §6

[7] = tested on: E. coli isolate 7 (IMP-4); assay: Cross-resistance MIC assay, clinical isolate; type: cell-based; conditions: E. coli isolate 7, IMP-4, resistance ESBL-CP; protocol as section 5 (CAMHB; there µg mL-1); unit not given in Table S5
Experimental: as §1, §2, §3, §4, §5, §6

[8] = tested on: E. coli isolate 1 (CTX-M-1); assay: Cross-resistance MIC assay, clinical isolate; parameters: unit not given beside the values; conditions: E. coli isolate 1, CTX-M-1, resistance ESBL; protocol as section 5 (CAMHB; there µg mL-1); unit not given in Table S5
[9] = tested on: E. coli isolate 4 (SHV-2a); assay: Cross-resistance MIC assay, clinical isolate; parameters: unit not given beside the values; conditions: resistance ESBL, protocol as section 5 (CAMHB; there µg mL-1), unit not given in Table S5
[10] = tested on: E. coli isolate 8 (KPC-2+TEM-1+OXA-9); assay: Cross-resistance MIC assay, clinical isolate; parameters: unit not given beside the values; conditions: E. coli isolate 8, KPC-2+TEM-1+OXA-9, resistance ESBL-CP; protocol as section 5 (CAMHB; there µg mL-1); unit not given in Table S5
[11] = tested on: E. coli isolate 9 (OXA-48); assay: Cross-resistance MIC assay, clinical isolate; parameters: unit not given beside the values; conditions: E. coli isolate 9, OXA-48, resistance ESBL-CP; protocol as section 5 (CAMHB; there µg mL-1); unit not given in Table S5
[12] = tested on: E. coli isolate 12 (ARM-A); assay: Cross-resistance MIC assay, clinical isolate; parameters: unit not given beside the values; conditions: resistance AG, protocol as section 5 (CAMHB; there µg mL-1), unit not given in Table S5
[13] = tested on: E. coli isolate 13 (RMT-C); assay: Cross-resistance MIC assay, clinical isolate; parameters: unit not given beside the values; conditions: resistance AG, protocol as section 5 (CAMHB; there µg mL-1), unit not given in Table S5
[14] = tested on: E. coli isolate 14 (qepA); assay: Cross-resistance MIC assay, clinical isolate; parameters: unit not given beside the values; conditions: resistance QL, protocol as section 5 (CAMHB; there µg mL-1), unit not given in Table S5
[15] = tested on: E. coli isolate 15 (qnrA1); assay: Cross-resistance MIC assay, clinical isolate; parameters: unit not given beside the values; conditions: E. coli isolate 15, qnrA1, resistance QL; protocol as section 5 (CAMHB; there µg mL-1); unit not given in Table S5
[16] = tested on: E. coli isolate 16 (QnrS1); assay: Cross-resistance MIC assay, clinical isolate; parameters: unit not given beside the values; conditions: E. coli isolate 16, QnrS1, resistance QL; protocol as section 5 (CAMHB; there µg mL-1); unit not given in Table S5

SMILES	MIC [1]	MIC [2]	MIC [3]	MIC [4] [µg/mL]	MIC [5] [µg/mL]	MIC [6] [µg/mL]	MIC [7] [µg/mL]	MIC [8]	MIC [9]	MIC [10]	MIC [11]	MIC [12]	MIC [13]	MIC [14]	MIC [15]	MIC [16]
NC[C@H]1O[C@H](O[C@H]2[C@H](O)[C@@H](O[C@H]3O[C@H](CO)[C@@H](O)[C@H](N)[C@H]3O)[C@H](N)C[C@@H]2N)[C@H](N)C[C@@H]1O [Tobramycin]	2	2	16	1 (≈ 2.14 µM)	1 (≈ 2.14 µM)	2 (≈ 4.28 µM)	16 (≈ 34.2 µM)	2	32	8	32	> 64	> 64	0.5	32	32
CN(C)[C@@H]1C(O)=C(C(N)=O)C(=O)[C@@]2(O)C(O)=C3C(=O)c4c(O)cccc4[C@@](C)(O)[C@H]3C[C@@H]12 [Tetracyclin]	32													4	4	
CO[C@H]1/C=C/O[C@@]2(C)Oc3c(C)c(O)c4c(O)c(c(/C=N/N5CCN(C)CC5)c(O)c4c3C2=O)NC(=O)/C(C)=C\C=C\[C@H](C)[C@H](O)[C@@H](C)[C@@H](O)[C@@H](C)[C@H](OC(C)=O)[C@@H]1C [Rifampicin]			16	16 (≈ 19.4 µM)	16 (≈ 19.4 µM)	16 (≈ 19.4 µM)	16 (≈ 19.4 µM)		16		64	> 64			> 64	
CO[C@@]1(NC(=O)Cc2cccs2)C(=O)N2C(C(=O)O)=C(COC(N)=O)CS[C@@H]21 [Cefoxitin]	4	4	4	16 (≈ 37.4 µM)	16 (≈ 37.4 µM)	16 (≈ 37.4 µM)	> 64	8	4	64	16	8	> 64	8	8	8
CO/N=C(\C(=O)N[C@@H]1C(=O)N2C(C(=O)O)=C(COC(C)=O)CS[C@H]12)c1csc(N)n1 [Cefotaxim]	64	1	64	> 64	> 64	0.25 (≈ 0.549 µM)	> 64	> 64	64	> 64	> 64	> 64	> 64	> 64	32	> 64
